Assay results published in patent publication US20210092955A1, “METHOD OF CONTROLLING HERBICIDE RESISTANT WEEDS IN CROPS” (SUMITIMO CHEMICAL COMPANY, LIMITED, priority 2018, published 2021).

Assays:
Format in all cases: in vivo
[1] = system: Amaranthus palmeri having Gly210 deletion in PPO2; experiment: Herbicidal effect, foliar spray in greenhouse pots (Example 4609, comparison); settings: rating 0 to 100; 25 g/ha; foliar spray 216 L/ha; 17 days after treatment; known art comparison
From the text: (§1) Plastic pots each having a diameter of 8 cm and a height of 7 cm were filled with the soil and seedlings of Amaranthus palmeri having a Gly399Ala mutation in PPO2 (originated from Mississippi, USA) were planted. After cultivation in a greenhouse for 31 days, an aqueous spray liquid prepared by diluting a predetermined amount of a commercial saflufenacil formulation (suspension concentrate containing 29.74% of saflufenacil, manufactured by BASF Corp. under the trade name of Sharpen) with water was sprayed uniformly over the weed using a sprayer in an amount of 216 L/ha. Then, the weeds were cultivated in a greenhouse for 17 days, followed by examining the herbicidal effects. For comparison, Amaranthus palmeri having Gly210 deletion in PPO2 (originated from Illinois, USA) and commercially available wild-type Amaranthus palmeri were tested.

[2] = system: wild-type Amaranthus palmeri; experiment: Herbicidal effect, foliar spray in greenhouse pots (Example 4609); settings: rating 0 to 100, 25 g/ha, foliar spray 216 L/ha, 17 days after treatment
From the text: as §1

[3] = system: Amaranthus palmeri having a Gly399Ala mutation in PPO2; experiment: as above; settings: rating 0 to 100; 25 g/ha; foliar spray 216 L/ha; 17 days after treatment
From the text: as §1

wild-type waterhemp = experiment: Herbicidal effect, foliar spray in greenhouse pots (Example 4610, comparison); settings: rating 0 to 100; 100 g/ha; foliar spray 200 L/ha; 4 days after treatment
From the text: (§2) Plastic pots each having a diameter of 8 cm and a height of 7 cm were filled with the soil and seedlings of Amaranthus palmeri having Arg128Gly mutation in PPO2 (originated from Arkansas, USA) were planted. After cultivaited in a greenhouse for 42 days, an aqueous spray liquid prepared by diluting a predetermined amount of trifludimoxazin formulation (emulsifiable concentrate obtained by mixing 20 parts of trifludimoxazin with 80 parts liquid cocktail (5:1 mixture of cyclohexanone and Sorpol 2680X (TOHO Chemical Industry Co., Ltd.))) with water, and its mixture with saflufenacil made by additionally diluting a predetermined amount of commercial saflufenacil formulation (suspension concentrate containing 29.74% of saflufenacil, manufactured by BASF Corp. under the trade name of Sharpen) were separately sprayed over the weed using a sprayer in an amount of 200 L/ha uniformly. Then, the weeds were cultivated in a greenhouse for 4 days, followed by examininig the herbicidal effects on the weeds. For comparison, waterhemp having Gly210 deletion in PPO2 (originated from Illinois, USA), commercially available wild-type waterhemp, and commercially available wild-type Amaranthus palmeri were tested.

[4] = system: waterhemp having Gly210 deletion in PPO2; experiment: as above; settings: rating 0 to 100; 100 g/ha; foliar spray 200 L/ha; 4 days after treatment; known art comparison
From the text: as §2

[5] = system: wild-type Amaranthus palmeri; experiment: Herbicidal effect, foliar spray in greenhouse pots (Example 4610); settings: rating 0 to 100; 100 g/ha; foliar spray 200 L/ha; 4 days after treatment
From the text: as §2

[6] = system: Amaranthus palmeri having Arg128Gly mutation in PPO2; experiment: as above; settings: rating 0 to 100; 100 g/ha; foliar spray 200 L/ha; 4 days after treatment
From the text: as §2

[7] = system: Amaranthus palmeri having an Arg128Met mutation in PPO2; experiment: Foliar treatment 21 days after sowing (Example 3); settings: 10, 20, 40, or 80 g/ha foliar treatment 21 days after sowing; examined 14 days after the treatment
From the text: Amaranthus palmeri having an Arg128Met mutation in PPO2 and soybean are sown in a plastic pot. Then, the weeds and soybean are cultivated in a greenhouse. A compound X is applied in an amount of 10, 20, 40, or 80 g/ha by spraying 200 L/ha of an aqueous dilution containing the compound X to perform foliar treatment 21 days after the sowing. Then, the weeds and soybean are cultivated in a greenhouse to examine the effects on the weeds and phytotoxic effects on soybean 14 days after the treatment.

[8] = system: Amaranthus palmeri having an Arg128Met mutation in PPO2; experiment: Soil surface treatment on day of sowing weed and soybean (Example 2); settings: 10, 20, 40, or 80 g/ha on soil surface on day of sowing; examined after 21 days
From the text: (§3) Amaranthus palmeri having an Arg128Met mutation in PPO2 and soybean are sown in a plastic pot. On the same day, a compound X is applied to the surface of soil in an amount of 10, 20, 40, or 80 g/ha by spraying 200 L/ha of an aqueous dilution containing the compound X. Then, the weeds and soybean are cultivated in a greenhouse to examine the effects on the weeds and phytotoxic effects on soybean after 21 days.

[9] = system: Amaranthus palmeri having an Arg128Met mutation in PPO2; experiment: Soil surface treatment before sowing soybean (Example 1); settings: 10, 20, 40, or 80 g/ha on soil surface on day of weed sowing; soybean sown after 7 days; examined after 14 days
From the text: as §3, with “is” for “and soybean are”, “[…].” for “X.”, “weeds” for “weeds and soybean”, “greenhouse and soybean seeds are sown after 7 days,” for “greenhouse”, “14” for “21”

Q: Which results are given for `CC(C)N(C)S(=O)(=O)NC(=O)c1cc(-n2c(=O)cc(C(F)(F)F)n(C)c2=O)c(F)cc1Cl` [Saflufenacil]?
A: herbicidal effect, Amaranthus palmeri Gly210 deletion [1]: 65; herbicidal effect, Amaranthus palmeri Wild-type ([2]; Table 1): 100; herbicidal effect, Amaranthus palmeri Wild-type ([2]; Table 2): 100; herbicidal effect, Amaranthus palmeri Gly399Ala mutation [3]: 100

Q: How did the “herbicidal effect, waterhemp Wild-type” value (wild-type waterhemp) turn out when `C#CCN1C(=O)C(F)(F)Oc2cc(F)c(-n3c(=O)n(C)c(=S)n(C)c3=O)cc21` [Trifludimoxazin] was run?
A: 95

Q: And the “herbicidal effect, waterhemp Gly210 deletion” value [4]?
A: 50

Q: And the “herbicidal effect, Amaranthus palmeri Wild-type” value [5]?
A: 90

Q: And the “herbicidal effect, Amaranthus palmeri Arg128Gly mutation” value [6]?
A: 88

Q: With `CCOC(=O)COc1ncccc1Oc1cc(-n2c(=O)cc(C(F)(F)F)n(C)c2=O)c(F)cc1Cl` [compound X, Ethyl [3-[2-chloro-4-fluoro-5-(1-methyl-6-trifluoromethyl-2,1-dioxo-1,2,3,1-tetrahydropyrimidine-3-yl)phenoxy]-2-pyridyloxy]acetate] as the compound, how does the “effects on the weeds” value [7] read?
A: valuable effect

Q: What about the “effects on the weeds” value [8] of the same compound?
A: valuable effect

Q: What about the “effects on the weeds” value [9] of the same compound?
A: valuable effect
